Laboratory results as given in patent EP4763838A1, “COMPOUND AND USE THEREOF” (Ocean University of China, priority 2023, dated 2025).
Where a name gives a salt, the structure may show the parent alone. One block for each compound: values may come before it.

How the values were obtained:
[1] = molecular target: T1, E3 ubiquitin ligase CRBN (Homo sapiens, UniProt Q96SW2); test: Binding activity to E3 ubiquitin ligase CRBN (HTRF competitive binding with XL665-labeled thalidomide, Cereblon binding kit); settings: competition with XL665-labeled thalidomide for GST-labelled CRBN protein, 3 h at room temperature
T1 construct: purchased PE (PerkinElmer) 64BDCRBNPEG
Protocol: The binding activity of the compound disclosed in the present patent to the E3 ubiquitin ligase CRBN was determined by competitive binding of the disclosed compound with XL665-labeled thalidomide to the CRBN protein, thereby preventing the occurrence of fluorescence resonance energy transfer (FRET). Accordingly, the binding affinity of the compound to the CRBN protein was determined.
CRBN binding activity test kit (CEREBLON BINDING KITS (PE, 64BDCRBNPEG)).
The assay was based on a homogeneous time-resolved fluorescence (HTRF) technology. When a donor and an acceptor were in close proximity, the donor transferred energy to the acceptor so that the acceptor was excited to emit an emission light 665 nm.
The donor used in the kit of the present disclosure was a europium-labeled GST antibody (GST Eu Cryptate Antibody), and the acceptor was thalidomide labeled with XL665 (Thalidomide-Red reagent). The donor bound to the CRBN protein comprising a GST label. The compound disclosed in the present patent competitively bound to the CRBN protein with thalidomide. The binding activity of the compound was determined according to the fluorescence value emitted by the acceptor at 665 nm. The stronger binding force of the compound indicated the weaker signal.
The donor and the acceptor were diluted 50-fold respectively by using a kit buffer (PROTAC binding buffer 1). The CRBN protein was diluted 45-fold. The 8 mM solution of the compound disclosed in the present patent was diluted 10-fold with 1X diluent from the kit, followed by 5-fold serial dilutions for a total of 7 consecutive dilutions.
5 µl of compound, 5 µl of diluted CRBN protein and 10 µl of donor-acceptor isovolumetric mixture were sequentially added to each well of a white 384-well plate (PE, Part number:6008280). The above system was incubated for 3 h at room temperature.
A ratio of acceptor to donor emission signals for each individual well was calculated. Ratio = signal value at 665 nm/signal value at 620 nm * 10^4 Coefficient of variation (CV) = standard deviation (SD)/average Ratio × 100 [formula]
The IC50 value was calculated based on the compound concentration, Ratio and the coefficient of variation by using GraphPad Prism. Table 10 Binding activity of compounds 1-18 to E3 ubiquitin ligase CRBN

[2] = molecular target: T2, BRD protein (Homo sapiens, UniProt O60885); test: Reduction of bromodomain protein (BRD) expression levels in MV-4-11 cells (Western blot, DC50 and Dmax); assay type: cell-based; settings: BRD4 Western blot, GAPDH internal reference; for DC50: 24 hours of treatment, 0.1, 1, 10 and 20 µM; for Dmax: MV4-11, 24 hours of treatment, 0.1, 1, 10 and 20 µM
T2 construct: endogenous in cells; host or cells: MV-4-11
Protocol: The human […] MV-4-11 cells selected in this experiment were cultured in Iscove's Modified Dulbecco's Medium (IMDM) culture medium containing 10% fetal bovine serum (Gibco, USA) in an incubator under the conditions of at 37°C, 5% CO2 and 95% humidity. When the growth density reached 80%, a culture medium containing the compound was selected, and the cells were inoculated into a 6-well plate with a cell density of 1×10^6/ml, so that the final concentrations of the compound were 0.1, 1, 10 and 20 µM. After 24 hours of treatment, the cells were collected, washed twice with PBS and lysed with an RIPA lysis buffer containing a protease inhibitor and a phosphatase inhibitor. The lysed mixed solution was centrifuged to obtain a total protein extract. The concentration of the protein in the extract was detected by using a BCA method.
Protein electrophoresis was performed via SDS-PAGE, followed by constant-current electrotransfer at 200 mA for 150 min to transfer proteins onto a polyvinylidene fluoride (PVDF) membrane. The PVDF membrane was placed in 5% skim milk and blocked for 1 h at room temperature. BRD4 (#13440, CST) (1:1000) and C-MYC (ab32072, 1:1000) were added for incubation overnight at 4°C. The membrane was washed with Tris buffered saline Tween (TBST) for 3 times, with 10 min each time. The mixture of the membrane and a secondary antibody were incubated for 60 min at room temperature. The membrane was washed with TBST for 3 times, with 10 min each time. The ECL light-emitting liquid was dropwise added for exposure. Each sample was simultaneously detected using GAPDH protein as an internal reference. The protein profile was analyzed for grayscale values using analysis software ImageJ. The gray scale correction value of each sample was calculated by using the formula was used below: gray scale correction value = (target protein gray scale value/corresponding internal reference gray scale value) × 10^3Then, the calculated gray scale correction value was compared with a control gray scale correction value to calculate a degradation rate. Then, nonlinear curve fitting was performed on a logarithmic concentration-inhibition rate using Prism to obtain the DC50 and Dmax values of the compound.
Table 13 summarizes the evaluation of the reduction effects of protein degraders PRTB-01 to 16 on BRD protein expression levels. DC50 represents the concentration of the protein degrader when it induces 50% of the BRD protein to be degraded, with the level classified as A (DC50<1 µM), B (DC50 1 to 10 µM), or C (DC50>10 µM). Dmax represents the proportion of the maximum degree of […] protein degradation induced by the protein degrader to the total amount of BRD protein, with the level graded as A (Dmax>85%), B (Dmax85~50%), or C ([…]<50%) Table 13 Evaluation of protein degraders PRTB-01 to 16 in reducing BRD protein expression levels

DC50 [2]: 1 to 10 µM
Dmax [2]: < 50%
Compound: Cc1sc2c(c1C)C(c1ccc(Cl)cc1)=N[C@@H](CC(=O)NCCCCCCNC(=O)COc1ccc(C3CCC(=O)NC3=O)nn1)c1nnc(C)n1-2 (stereo partly shown) [PRTB-03]

DC50 [2]: < 1 µM
Dmax [2]: > 85%
Compound: Cc1sc2c(c1C)C(c1ccc(Cl)cc1)=N[C@@H](CC(=O)NCCCCCNC(=O)C#Cc1ccc(C3CCC(=O)NC3=O)nn1)c1nnc(C)n1-2 (stereo partly shown) [PRTB-13]

DC50 [2]: 1 to 10 µM
Dmax [2]: < 50%
Compound: Cc1sc2c(c1C)C(c1ccc(Cl)cc1)=N[C@@H](CC(=O)NCCCC(=O)N1CCN(c3ccc(C4CCC(=O)NC4=O)nn3)CC1)c1nnc(C)n1-2 (stereo partly shown) [PRTB-04]

DC50 [2]: < 1 µM
Dmax [2]: 50 to 85%
Compound: Cc1sc2c(c1C)C(c1ccc(Cl)cc1)=N[C@@H](CC(=O)NCCCn1ccc(C#Cc3ccc(C4CCC(=O)NC4=O)nn3)n1)c1nnc(C)n1-2 (stereo partly shown) [PRTB-14]

DC50 [2]: 1 to 10 µM
Dmax [2]: 50 to 85%
Compound: Cc1cc(N2CCN(C(=O)COCCNC(=O)C[C@@H]3N=C(c4ccc(Cl)cc4)c4c(sc(C)c4C)-n4c(C)nnc43)CC2)nnc1C1CCC(=O)NC1=O (stereo partly shown) [PRTB-09]

DC50 [2]: > 10 µM
Dmax [2]: < 50%
Compound: Cc1sc2c(c1C)C(c1ccc(Cl)cc1)=N[C@@H](CC(=O)NCCOCC(=O)N1CCN(c3nnc(C4CCC(=O)NC4=O)c4ccccc34)CC1)c1nnc(C)n1-2 (stereo partly shown) [PRTB-11]

DC50 [2]: > 10 µM
Dmax [2]: < 50%
Compound: Cc1sc2c(c1C)C(c1ccc(Cl)cc1)=N[C@@H](CC(=O)NCCOCC(=O)N1CCN(c3nnc(C4CCC(=O)NC4=O)c4c3CCCC4)CC1)c1nnc(C)n1-2 (stereo partly shown) [PRTB-10]

DC50 [2]: 1 to 10 µM
Dmax [2]: < 50%
Compound: Cc1sc2c(c1C)C(c1ccc(Cl)cc1)=N[C@@H](CC(=O)NCCCCC(=O)N1CCN(c3ccc(C4CCC(=O)NC4=O)nn3)CC1)c1nnc(C)n1-2 (stereo partly shown) [PRTB-05]

DC50 [2]: > 10 µM
Dmax [2]: < 50%
Compound: COc1nnc(C2CCC(=O)NC2=O)cc1N1CCN(C(=O)COCCNC(=O)C[C@@H]2N=C(c3ccc(Cl)cc3)c3c(sc(C)c3C)-n3c(C)nnc32)CC1 (stereo partly shown) [PRTB-16]

DC50 [2]: < 1 µM
Dmax [2]: > 85%
Compound: Cc1sc2c(c1C)C(c1ccc(Cl)cc1)=N[C@@H](CC(=O)NCCCCCNC(=O)COc1ccc(C3CCC(=O)NC3=O)nn1)c1nnc(C)n1-2 (stereo partly shown) [PRTB-02]

DC50 [2]: > 10 µM
Dmax [2]: < 50%
Compound: Cc1sc2c(c1C)C(c1ccc(Cl)cc1)=N[C@@H](CC(=O)NCCCOCC(=O)N1CCN(c3ccc(C4CCC(=O)NC4=O)nn3)CC1)c1nnc(C)n1-2 (stereo partly shown) [PRTB-07]

DC50 [2]: 1 to 10 µM
Dmax [2]: 50 to 85%
Compound: Cc1sc2c(c1C)C(c1ccc(Cl)cc1)=N[C@@H](CC(=O)NCCOCC(=O)N1CCN(c3ccc(C4CCC(=O)NC4=O)nn3)CC1)c1nnc(C)n1-2 (stereo partly shown) [PRTB-06]

DC50 [2]: < 1 µM
Dmax [2]: > 85%
Compound: Cc1sc2c(c1C)C(c1ccc(Cl)cc1)=N[C@@H](CC(=O)NCCCn1cc(C#Cc3ccc(C4CCC(=O)NC4=O)nn3)cn1)c1nnc(C)n1-2 (stereo partly shown) [PRTB-15]

DC50 [2]: < 1 µM
Dmax [2]: > 85%
Compound: Cc1sc2c(c1C)C(c1ccc(Cl)cc1)=N[C@@H](CC(=O)NCCCCCOC1CN(c3ccc(C4CCC(=O)NC4=O)nn3)C1)c1nnc(C)n1-2 (stereo partly shown) [PRTB-12]

DC50 [2]: 1 to 10 µM
Dmax [2]: 50 to 85%
Compound: Cc1sc2c(c1C)C(c1ccc(Cl)cc1)=N[C@@H](CC(=O)NCCOCC(=O)N1CCN(c3ccc(N4CCC(=O)NC4=O)nn3)CC1)c1nnc(C)n1-2 [PRTB-08]

The next lines start with the compound.

Compound: Nc1cc(C2CCC(=O)NC2=O)nnc1N1CCNCC1 (stereo not shown) [Compound 29, 3-(5-amino-6-(piperazin-1-yl)pyridazin-3-yl)piperidine-2,6-dione hydrochloride salt]
IC50 [1]: 50 µM

Compound: [2H]C1(c2ccc(N3CCNCC3)nn2)CCC(=O)NC1=O (stereo not shown) [Compound 39, 3-(6-(piperazin-1-yl)pyridazin-3-yl)piperidine-2,6-dione-3-dhydrochloride salt]
IC50 [1]: 50 µM

Compound: COc1nnc(C2CCC(=O)NC2=O)cc1N1CCNCC1 (stereo not shown) [Compound 41, 3-(6-methoxy-5-(piperazin-1-yl)pyridazin-3-yl)piper idine-2,6-dione hydrochloride salt]
IC50 [1]: 50 µM

Compound: O=C1CCC(c2cc(C(F)(F)F)c(N3CCNCC3)nn2)C(=O)N1 (stereo not shown) [Compound 27, 3-(6-(piperazin-1-yl)-5-(trifluoromethyl)pyridazin-3-yl)piperidine-2,6-dione hydrochloride salt]
IC50 [1]: 50 µM

Compound: Nc1cc(N2CCNCC2)nnc1C1CCC(=O)NC1=O (stereo not shown) [Compound 17, 3-(4-amino-6-(piperazin-1-yl)pyridazin-3-yl)piperidine-2,6-dione hydrochloride salt]
IC50 [1]: 50 µM

Compound: O=C1CCC(F)(c2ccc(N3CCNCC3)nn2)C(=O)N1 (stereo not shown) [Compound 38, 3-fluoro-3-(6-(piperazin-1-yl)pyridazin-3-yl)piperidine-2,6-dione hydrochloride salt]
IC50 [1]: 50 µM

Compound: O=C1CCC(c2nnc(N3CCNCC3)cc2C(F)(F)F)C(=O)N1 (stereo not shown) [Compound 15, 3-(6-(piperazin-1-yl)-4-(trifluoromethyl)pyridazin-3-yl)piperidine-2,6-dione hydrochloride salt]
IC50 [1]: 50 µM

Compound: O=C1CCC(c2ccc(N3CCC[C@@H]3CO)nn2)C(=O)N1 (stereo partly drawn) [Compound 5, 3-(6-((R)-2-(hydroxymethyl)pyrrolidin-1-yl)pyridazin-3-yl)piperidine-2,6-dione]
IC50 [1]: 50 µM

Compound: O=C1CCC(c2ccc(N3CCNCC3)nn2)C(=O)N1 (stereo not shown) [Compound 7, 3-(6-(piperazin-1-yl)pyridazin-3-yl)piperidine-2,6-dione hydrochloride salt]
IC50 [1]: 50 µM

Compound: CC(C)c1cc(C2CCC(=O)NC2=O)nnc1N1CCNCC1 (stereo not shown) [Compound 23, 3-(5-isopropyl-6-(piperazin-1-yl)pyridazin-3-yl)piper idine-2,6-dione hydrochloride salt]
IC50 [1]: 100 µM

Compound: O=C1CCC(c2nnc(N3CCNCC3)cc2-c2ccncc2)C(=O)N1 (stereo not shown) [Compound 20, 3-(6-(piperazin-1-yl)-4-(pyridin-4-yl)pyridazin-3-yl)pi peridine-2,6-dione hydrochloride salt]
IC50 [1]: > 100 µM

Compound: Cc1sc2c(c1C)C(c1ccc(Cl)cc1)=N[C@@H](CC(=O)NCCCCNC(=O)COc1ccc(C3CCC(=O)NC3=O)nn1)c1nnc(C)n1-2 (stereo partly shown) [PRTB-01]
DC50 [2]: 1 to 10 µM
Dmax [2]: < 50%

Compound: CN(C)c1nnc(C2CCC(=O)NC2=O)cc1N1CCNCC1 (stereo not shown) [Compound 42, 3-(6-(dimethylamino)-5-(piperazin-1-yl)pyridazin-3-yl)piperidine-2,6-dione hydrochloride salt]
IC50 [1]: 50 µM

Compound: Cc1cc(C2CCC(=O)NC2=O)nnc1N1CCNCC1 (stereo not shown) [Compound 21, 3-(5-methyl-6-(piperazin-1-yl)pyridazin-3-yl)piperidine-2,6-dione hydrochloride salt]
IC50 [1]: 50 µM

Compound: O=C1CCC(c2cc(C3CC3)c(N3CCNCC3)nn2)C(=O)N1 (stereo not shown) [Compound 24, 3-(5-cyclopropyl-6-(piperazin-1-yl)pyridazin-3-yl)pip eridine-2,6-dione hydrochloride salt]
IC50 [1]: > 50 µM
